Our source for the Log values is ChEMBL document CHEMBL1132579, “Self-organizing molecular field analysis: a tool for structure-activity studies” (J Med Chem, 1999).

The experiment has as its target T1, Corticosteroid-binding globulin (Homo sapiens) (UniProt P08185).
T1 sequence (whole entry): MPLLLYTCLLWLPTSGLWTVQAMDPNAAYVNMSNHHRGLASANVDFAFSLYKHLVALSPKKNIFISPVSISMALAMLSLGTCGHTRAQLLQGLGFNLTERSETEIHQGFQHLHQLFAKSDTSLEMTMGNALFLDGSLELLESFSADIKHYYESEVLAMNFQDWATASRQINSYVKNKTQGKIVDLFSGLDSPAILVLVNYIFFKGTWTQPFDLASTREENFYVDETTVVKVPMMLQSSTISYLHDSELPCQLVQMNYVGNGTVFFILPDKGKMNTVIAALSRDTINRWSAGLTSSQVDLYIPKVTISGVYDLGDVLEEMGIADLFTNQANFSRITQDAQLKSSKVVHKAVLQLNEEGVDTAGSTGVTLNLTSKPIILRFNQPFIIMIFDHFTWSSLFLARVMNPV
Put plainly: Compound was evaluated for its binding affinity towards the human corticosteroid binding globulin.
Take `CC(=O)[C@@]1(O)[C@H](O)C[C@H]2[C@@H]3CCC4=CC(=O)CC[C@]4(C)[C@H]3CC[C@@]21C`: the Log is -6.25 k.
`CC(=O)[C@H]1CCC2C3CCC4=CC(=O)CCC4C3CC[C@@]21C` (some centres undefined): the Log is -6.82 k.
As for `CC(=O)OCC(=O)[C@@]1(O)CCC2C3CCC4=CC(=O)CC[C@]4(C)C3[C@@H](O)C[C@@]21C` (some centres undefined), the Log is -7.55 k.
Consider `C[C@@H]1C[C@@]2(C)C(=CC1=O)CC[C@H]1[C@@H]3CC[C@](O)(C(=O)CO)[C@@]3(C)C[C@H](O)[C@@]12F`, for which the Log is -5.8 k.
As to `CC(=O)[C@H]1CC[C@H]2[C@@H]3CCC4=CC(=O)CC[C@]4(C)[C@H]3C(=O)C[C@]12C`, the Log was -6.78 k.
Next, `C[C@]12C[C@@H](O)[C@H]3[C@@H](CCC4=CC(=O)CC[C@@]43C)[C@@H]1CC[C@@H]2C(=O)CO`: -7.2 k.
The result for `C[C@]12C=CC(=O)C=C1CC[C@@H]1[C@@H]2[C@@H](O)C[C@@]2(C)[C@H]1CC[C@]2(O)C(=O)CO` reads -7.51 k; that for `C[C@]12CC[C@H]3[C@@H](CCC4=CC(=O)CC[C@@H]43)[C@@H]1CC[C@@H]2O`, -6.14 k; that for `CC(=O)[C@H]1[C@H](C)C[C@H]2[C@@H]3CCC4=CC(=O)CC[C@]4(C)[C@H]3CC[C@@]21C`, -7.12 k.
